Experimental data as given in ChEMBL document CHEMBL4480377, “Synthesis and biological evaluation of zinc chelating compounds as metallo-β-lactamase inhibitors” (Medchemcomm, 2019).

How the values were obtained:
[1] = test system: MDA-MB-231; test: Cytotoxicity against human MDA-MB-231 cells after 72 hrs by MTT assay; assay type: cell-based; settings: MDA-MB-231, 72 h
[2] = Cytotoxicity against human MiaPaCa cells after 72 hrs by MTT assay; assay type: cell-based; settings: MIA PaCa-2, 72 h
[3] = target: Beta-lactamase VIM-2 (Pseudomonas aeruginosa) (UniProt Q9K2N0); test: Inhibition of beta-lactamase VIM-2 in Pseudomonas aeruginosa assessed as potentiation of meropenem-induced antibacterial activity by measuring meropenem MIC at 31 uM after 20 hrs by broth microdilution assay (meropenem alone = 32 to 64 mg/L)
[4] = target: Metallo-beta-lactamase type 2 (Klebsiella pneumoniae) (UniProt C7C422); test: Inhibition of NDM1 in Pseudomonas aeruginosa assessed as potentiation of meropenem-induced antibacterial activity by measuring meropenem MIC at 16 uM after 20 hrs by broth microdilution assay (meropenem alone = 32 to 64 mg/L)
[5] = Binding affinity to zinc assessed as dissociation constant for compound-metal complex
[6] = target: Beta-lactamase VIM-2 (Pseudomonas aeruginosa) (UniProt Q9K2N0); test: Inhibition of beta-lactamase VIM-2 in Pseudomonas aeruginosa assessed as potentiation of meropenem-induced antibacterial activity by measuring meropenem MIC at 125 uM after 20 hrs by broth microdilution assay (meropenem alone = 32 to 64 mg/L)
[7] = target: Metallo-beta-lactamase type 2 (Klebsiella pneumoniae) (UniProt C7C422); test: Inhibition of NDM1 in Pseudomonas aeruginosa assessed as potentiation of meropenem-induced antibacterial activity by measuring meropenem MIC at 125 uM after 20 hrs by broth microdilution assay (meropenem alone = 32 to 64 mg/L)
[8] = target: Metallo-beta-lactamase type 2 (Klebsiella pneumoniae) (UniProt C7C422); test: Inhibition of NDM1 in Pseudomonas aeruginosa assessed as potentiation of meropenem-induced antibacterial activity by measuring meropenem MIC at 31 uM after 20 hrs by broth microdilution assay (meropenem alone = 32 to 64 mg/L)
[9] = target: Beta-lactamase VIM-2 (Pseudomonas aeruginosa) (UniProt Q9K2N0); test: Inhibition of beta-lactamase VIM-2 in Pseudomonas aeruginosa assessed as potentiation of meropenem-induced antibacterial activity by measuring meropenem MIC at 16 uM after 20 hrs by broth microdilution assay (meropenem alone = 32 to 64 mg/L)
[10] = test system: COLO357; test: Cytotoxicity against human Colo-357 cells after 72 hrs by MTT assay; assay type: cell-based; settings: COLO357, 72 h
[11] = target: Beta-lactamase VIM-2 (Pseudomonas aeruginosa) (UniProt Q9K2N0); test: Inhibition of beta-lactamase VIM-2 in Pseudomonas aeruginosa assessed as potentiation of meropenem-induced antibacterial activity by measuring meropenem MIC at 50 uM after 20 hrs by broth microdilution assay (meropenem alone = 32 to 64 mg/L)
[12] = target: Metallo-beta-lactamase type 2 (Klebsiella pneumoniae) (UniProt C7C422); test: Inhibition of NDM1 in Pseudomonas aeruginosa assessed as potentiation of meropenem-induced antibacterial activity by measuring meropenem MIC at 50 uM after 20 hrs by broth microdilution assay (meropenem alone = 32 to 64 mg/L)
[13] = test system: HepG2; test: Cytotoxicity against human HepG2 cells after 72 hrs by MTT assay; assay type: cell-based; settings: HepG2, 72 h

Metallo-beta-lactamase type 2 (Klebsiella pneumoniae), sequence (C7C422 whole entry): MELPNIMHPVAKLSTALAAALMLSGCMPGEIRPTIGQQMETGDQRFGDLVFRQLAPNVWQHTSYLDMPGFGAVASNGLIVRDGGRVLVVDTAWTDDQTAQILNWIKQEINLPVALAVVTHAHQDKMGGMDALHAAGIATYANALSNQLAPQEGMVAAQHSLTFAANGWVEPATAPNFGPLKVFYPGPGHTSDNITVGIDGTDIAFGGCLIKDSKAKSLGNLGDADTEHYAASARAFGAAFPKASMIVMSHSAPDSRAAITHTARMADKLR

Row | SMILES | IC50 [1] [µM] | IC50 [2] [µM] | MIC [3] [µg/mL] | MIC [4] [µg/mL] | pKd [5] | MIC [6] [µg/mL] | MIC [7] [µg/mL] | MIC [8] [µg/mL] | MIC [9] [µg/mL] | IC50 [10] [µM] | MIC [11] [µg/mL] | MIC [12] [µg/mL] | IC50 [13] [µM]
1 | C[C@H](N)C(=O)N[C@@H](C)C(=O)NCCc1ccc(NC(=O)CN(CCN(Cc2ccccn2)Cc2ccccn2)Cc2ccccn2)cc1.Cl | 5.1 | 5.5 | 4 | 16 | 12.3 | 2 | 0.125 | 0.125 | 32 | 6.8 |  |  | 
2 | COC(=O)[C@@H](C)NC(=O)[C@H](CCCCNC(=O)Cn1cc(CN(Cc2ccccn2)Cc2ccccn2)nn1)NC(C)=O |  |  |  |  |  |  |  |  |  |  | 16 | 8 | 
3 | C[C@@H](N)C(=O)N[C@H](C)C(=O)NCCc1ccc(NC(=O)CN(Cc2ccccn2)Cc2ccccn2)cc1.Cl | 127 | 118 |  |  | 7.6 | 16 | 8 |  |  | 21 |  |  | 
4 | COC(=O)[C@@H](CCCCNC(=O)Cn1cc(CN(Cc2ccccn2)Cc2ccccn2)nn1)NC(=O)[C@@H](C)N | 127 | 106 |  |  | 8.9 |  |  |  |  | 114 |  |  | 
5 | Cl.NCC(=O)NCC(=O)NCCc1ccc(NC(=O)CN(CCN(Cc2ccccn2)Cc2ccccn2)Cc2ccccn2)cc1 | 15 | 21 |  |  | 12.3 |  |  |  |  | 24 |  |  | 
6 | COC(=O)[C@@H](C)NC(=O)[C@H](CCCCNC(C)=O)NC(=O)Cn1cc(CN(Cc2ccccn2)Cc2ccccn2)nn1 |  |  |  |  |  |  |  |  |  |  | 32 | 8 | 
7 | COC(=O)CNC(=O)[C@H](CCCCNC(=O)Cn1cc(CN(Cc2ccccn2)Cc2ccccn2)nn1)NC(C)=O |  |  |  |  |  |  |  |  |  |  | 16 | 4 | 
8 | c1ccc(CNCCN(Cc2ccccn2)Cc2ccccn2)nc1 |  |  | 1 | 8 |  | 0.5 | < 0.25 | 0.125 | 32 |  |  |  | 
9 | COC(=O)[C@@H](C)NC(=O)[C@@H](C)NC(=O)Cn1cc(CN(Cc2ccccn2)Cc2ccccn2)nn1 | 152 | 116 | 64 | 32 | 8.9 | 2 | < 0.5 | 16 | 32 | 133 |  |  | 
10 | C[C@@H](N)C(=O)N[C@H](C)C(=O)NCCc1ccc(-n2cc(CN(Cc3ccccn3)Cc3ccccn3)nn2)cc1 |  |  |  |  |  |  |  |  |  |  | 4 | 4 | 
11 | COC(=O)CNC(=O)CNC(=O)Cn1cc(CN(Cc2ccccn2)Cc2ccccn2)nn1 | 168 | 176 |  |  | 8.9 | 4 | 2 |  |  | 137 |  |  | 
12 | CN(CCN(Cc1ccccn1)Cc1ccccn1)CC(=O)N(C)C[C@H](O)[C@@H](O)[C@H](O)[C@H](O)CO |  |  | 1 | 32 |  |  |  | 0.25 | 32 |  |  |  | 118
13 | COC(=O)[C@@H](C)NC(=O)[C@@H](C)NC(=O)Cc1ccc(-n2cc(CN(Cc3ccccn3)Cc3ccccn3)nn2)cc1 | 125 | 119 |  |  | 8.9 |  |  |  |  | 105 | 8 | 4 | 
14 | COC(=O)[C@H](C)NC(=O)[C@H](C)NC(=O)Cn1cc(CN(Cc2ccccn2)Cc2ccccn2)nn1 | 157 | 105 | 16 | 16 | 8.9 | 8 | 2 | 8 | 32 | 96 |  |  | 
15 | COC(=O)[C@@H](C)NC(=O)[C@@H](C)NC(=O)CCC(=O)NCCc1ccc(NC(=O)CN(Cc2ccccn2)Cc2ccccn2)cc1 | 141 | 45 |  |  | 7.6 | 32 | 8 to 16 |  |  | 152 |  |  | 
16 | NCC(=O)NCC(=O)NCCc1ccc(-n2cc(CN(Cc3ccccn3)Cc3ccccn3)nn2)cc1 |  |  |  |  |  |  |  |  |  |  | 8 | 4 | 
17 | CC(=O)N[C@@H](CCCCNC(=O)Cn1cc(CN(Cc2ccccn2)Cc2ccccn2)nn1)C(=O)NCB(O)O | 128 | 119 | 32 | 16 | 8.9 | 2 | 0.5 | 8 | 32 | 82 |  |  | 
18 | OC1O[C@H](Cn2cc(CN(CCN(Cc3ccccn3)Cc3ccccn3)Cc3ccccn3)nn2)[C@H](O)[C@H](O)[C@H]1O (some centres not stated) |  |  | 2 | 8 |  |  |  | 0.125 | 32 |  |  |  | 1.7
19 | COC(=O)[C@@H](CCCCn1cc(CN(Cc2ccccn2)Cc2ccccn2)nn1)NC(=O)[C@@H](C)NC(C)=O | 131 | 128 |  |  | 8.9 | 4 | 1 |  |  | 101 |  |  | 
20 | COC(=O)CNC(=O)CNC(=O)Cc1ccc(NC(=O)CN(CCN(Cc2ccccn2)Cc2ccccn2)Cc2ccccn2)cc1 | 7.8 | 12 | 2 | 16 | 12.3 | 1 | 0.125 | 2 | 32 | 12 |  |  | 
21 | COC(=O)[C@H](C)NC(=O)[C@H](C)NC(=O)Cc1ccc(NC(=O)CN(CCN(Cc2ccccn2)Cc2ccccn2)Cc2ccccn2)cc1 |  |  | 1 | 8 |  | 1 | 0.125 | 0.125 | 32 |  |  |  | 
22 | CC(=O)NCCCC[C@H](NC(=O)Cn1cc(CN(Cc2ccccn2)Cc2ccccn2)nn1)C(=O)NCB(O)O | 101 | 66 | 16 | 16 | 8.9 | 2 | 0.5 | 8 | 32 | 112 |  |  | 
23 | COC(=O)[C@@H](C)NC(=O)[C@@H](C)NC(=O)Cc1ccc(NC(=O)CN(CCN(Cc2ccccn2)Cc2ccccn2)Cc2ccccn2)cc1 | 4.1 | 5.9 | 4 | 16 | 12.3 | 1 | 0.125 | 0.125 | 32 | 5.4 |  |  | 
24 | COC(=O)[C@@H](C)NC(=O)[C@@H](C)NC(=O)CN(Cc1ccccn1)Cc1ccccn1 | 184 | 98 |  |  | 7.6 | 16 | 8 to 16 |  |  | 90 |  |  | 
25 | COC(=O)CNC(=O)CNC(=O)Cc1ccc(-n2cc(CN(Cc3ccccn3)Cc3ccccn3)nn2)cc1 |  |  |  |  |  |  |  |  |  |  | 8 | 4 | 
26 | CCOC(=O)Cc1ccc(-n2cc(CN(Cc3ccccn3)Cc3ccccn3)nn2)cc1 |  |  |  |  |  |  |  |  |  |  | 16 | 4 | 
27 | COC(=O)CNC(=O)[C@H](CCCCNC(C)=O)NC(=O)Cn1cc(CN(Cc2ccccn2)Cc2ccccn2)nn1 |  |  |  |  |  |  |  |  |  |  | 32 | 8 | 
